Reference: the CheMixHub viscosity set

Assay: xn = mol fraction of the nth substance listed

Cl.N[C@@H](CS)C(=O)O.O + O
viscosity [mPa·s], 101 kPa
Conditions	303.15 K	308.15 K	313.15 K	318.15 K	323.15 K
x1 = 0.01	0.8529	0.7892	0.7275	0.6712	0.6181
x1 = 0.0122	0.9644	–	0.795	–	0.6742
x1 = 0.02	1.126	1.023	0.9082	0.8248	0.769
x1 = 0.0272	1.2	–	0.9836	–	0.8276
x1 = 0.04	1.506	1.356	1.273	1.112	1.018
x1 = 0.0463	1.591	–	1.288	–	1.084
x1 = 0.0579	1.877	–	1.508	–	1.244
x1 = 0.0714	2.27	–	1.797	–	1.49
x1 = 0.08	2.486	2.237	1.968	1.785	1.594
x1 = 0.0871	2.805	–	2.191	–	1.711
x1 = 0.1	3.391	2.955	2.572	2.293	2.048
x1 = 0.1057	3.602	–	2.783	–	2.239
x1 = 0.11	3.97	3.387	2.951	2.575	2.336
x1 = 0.12	4.627	3.883	3.387	2.93	2.67
x1 = 0.1281	5.207	–	3.69	–	2.906
x1 = 0.13	5.349	4.451	3.878	3.35	3.052
x1 = 0.14	6.119	5.101	4.426	3.833	3.483
x1 = 0.15	6.915	5.842	5.027	4.408	3.963
x1 = 0.1558	7.415	–	5.463	–	4.309
x1 = 0.16	7.706	6.524	5.678	5.017	4.492
x1 = 0.17	8.459	7.218	6.372	5.719	5.066
x1 = 0.18	9.134	8.014	7.104	6.301	5.685
x1 = 0.19	9.972	8.826	7.864	7.002	6.342
x1 = 0.1903	9.687	–	7.875	–	6.354

NCCCN + O
viscosity [mPa·s]
Conditions	303.15 K	308.15 K	313.15 K	318.15 K	323.15 K
101 kPa, x1 = 0.05	1.58	1.38	1.227	1.097	–
101 kPa, x1 = 0.0966	2.754	2.355	2.03	–	–
101 kPa, x1 = 0.1458	4.36	3.619	3.031	–	–
101 kPa, x1 = 0.199	6.289	5.088	4.188	–	–
101 kPa, x1 = 0.2473	7.568	6.055	4.93	–	–
101 kPa, x1 = 0.2961	8.219	6.535	5.313	–	–
101 kPa, x1 = 0.3465	7.991	6.401	5.22	–	–
101 kPa, x1 = 0.3974	7.438	6.022	4.946	–	–
101 kPa, x1 = 0.4955	5.878	4.832	4.038	–	–
101 kPa, x1 = 0.5995	4.307	3.644	3.127	–	–
101 kPa, x1 = 0.6969	3.224	2.779	2.419	–	–
101 kPa, x1 = 0.8006	2.501	2.177	1.921	–	–
101 kPa, x1 = 0.8936	1.997	1.762	1.573	–	–
101.33 kPa, x1 = 0.0518	1.637	1.437	1.267	1.127	1.008
101.33 kPa, x1 = 0.1	2.991	2.534	2.174	1.887	1.65
101.33 kPa, x1 = 0.1498	4.882	4.012	3.345	2.827	2.417
101.33 kPa, x1 = 0.2004	6.762	5.446	4.467	3.714	3.132
101.33 kPa, x1 = 0.2498	7.872	6.309	5.128	4.236	3.548
101.33 kPa, x1 = 0.2734	8.088	6.473	5.268	4.351	3.646
101.33 kPa, x1 = 0.2984	8.108	6.502	5.297	4.379	3.662
101.33 kPa, x1 = 0.3248	7.918	6.364	5.199	4.307	3.619
101.33 kPa, x1 = 0.3502	7.614	6.155	5.027	4.189	3.518
101.33 kPa, x1 = 0.3766	7.121	5.774	4.754	3.972	3.354
101.33 kPa, x1 = 0.4041	6.681	5.464	4.509	3.787	3.211
101.33 kPa, x1 = 0.4467	5.911	4.871	4.068	3.445	2.935
